According to ChEMBL document CHEMBL1201862, “PubChem BioAssay data set” (2004):
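Where inhibition never reached the appropriate level, the endpoint shown equals the highest concentration tested. Otherwise, values were interpolated linearly from a five-concentration, 48-hour dose response in 96-well plates. GI50 is the concentration that inhibits growth by half.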 Active and inactive are the calls of the source. No stated cut-off is given here; in the data, active = GI50 up to about 1.1 µM and inactive = higher.

Columns and labels:
Assay in all cases: NCI-60 cell line screen, 48 h
KM-20L2 = test system: KM-20L2
LXFL 529 = test system: LXFL 529
M19-MEL = test system: M19-MEL
HOP-18 = test system: HOP-18
SNB-78 = test system: SNB-78
DMS-273 = test system: DMS-273
XF498 = test system: XF498
DMS-114 = test system: DMS-114
RXF 631 = test system: RXF 631

Structure (SMILES) | GI50 (KM-20L2) | GI50 (LXFL 529) | GI50 (M19-MEL) | GI50 (HOP-18) | GI50 (SNB-78) | GI50 (DMS-273) | GI50 (XF498) | GI50 (DMS-114) | GI50 (RXF 631)
O=c1c2cc3c(cc2c2cccc4c2n1CCC4)OCO3 | 45.7 µM (inactive) | 37.5 µM (inactive) | 86.7 µM (inactive) | 49.5 µM (inactive) | 68.5 µM (inactive) | 28.1 µM (inactive) | – | – | –
C/C(=N\NC(=S)N1CCCCCC1)c1nccnc1C | < 0.01 µM (active) | < 0.01 µM (active) | 0.174 µM (active) | 0.617 µM (active) | 0.885 µM (active) | < 0.01 µM (active) | 1.43 µM (inactive) | < 0.01 µM (active) | –
CCCCCCCCCCCCCC(=O)NCC(OCC)OCC | > 100 µM (inactive) | > 100 µM (inactive) | > 100 µM (inactive) | > 100 µM (inactive) | > 100 µM (inactive) | > 100 µM (inactive) | > 100 µM (inactive) | > 100 µM (inactive) | –
O=C1C=C(Nc2ccccc2C(=O)c2ccccc2)c2ccccc2C1=O | > 100 µM (inactive) | > 100 µM (inactive) | 9.14 µM (inactive) | > 100 µM (inactive) | > 100 µM (inactive) | > 100 µM (inactive) | – | 36.1 µM (inactive) | –
CCn1c2ccccc2c2c(-c3ccccc3)cc3c(c21)C(=O)N(c1ccccc1)C3=O | > 100 µM (inactive) | > 100 µM (inactive) | > 100 µM (inactive) | – | > 100 µM (inactive) | 46.2 µM (inactive) | > 100 µM (inactive) | > 100 µM (inactive) | –
COC(=O)C1=C(c2cc(OC)c(OC)c(OC)c2)O[C@H](c2ccc3c(c2)OCO3)[C@H]1COC(C)=O | 30.3 µM (inactive) | 20.3 µM (inactive) | 20.7 µM (inactive) | 26.7 µM (inactive) | 26.7 µM (inactive) | 26.6 µM (inactive) | 33.6 µM (inactive) | – | 42.3 µM (inactive)
CN1CCc2ccccc2C(C(=O)c2ccc3c(c2)OCO3)C1=O (configuration not stated) | > 100 µM (inactive) | > 100 µM (inactive) | > 100 µM (inactive) | > 100 µM (inactive) | – | > 100 µM (inactive) | 70.8 µM (inactive) | 39.3 µM (inactive) | > 100 µM (inactive)
CCOC(=O)C(CCCNC(=O)OC(C)(C)C)N(Cc1ccc(OC)cc1OC)C(=O)CC(=O)CP(=O)(OCC)OCC (configuration not stated) | > 100 µM (inactive) | > 100 µM (inactive) | > 100 µM (inactive) | > 100 µM (inactive) | – | > 100 µM (inactive) | – | 21 µM (inactive) | > 100 µM (inactive)
Cc1c(CC/C(=N\Nc2ccc([N+](=O)[O-])cc2[N+](=O)[O-])c2ccccc2)c2ccccc2n1C | > 100 µM (inactive) | > 100 µM (inactive) | > 100 µM (inactive) | – | > 100 µM (inactive) | > 100 µM (inactive) | > 100 µM (inactive) | > 100 µM (inactive) | > 100 µM (inactive)
O=C(CCc1nnc2s/c(=C\c3ccc(Cl)cc3Cl)c(=O)n12)Nc1cc(Cl)c(Cl)cc1Cl | > 10 µM (inactive) | > 10 µM (inactive) | > 10 µM (inactive) | > 10 µM (inactive) | 84.1 µM (inactive) | > 10 µM (inactive) | > 10 µM (inactive) | > 10 µM (inactive) | 71.4 µM (inactive)
CCOC(=O)CNC(SC)=C(C#N)C#N | > 100 µM (inactive) | > 100 µM (inactive) | > 100 µM (inactive) | – | > 100 µM (inactive) | > 100 µM (inactive) | > 100 µM (inactive) | > 100 µM (inactive) | –
COc1ccc(N2C(=O)/C(=C/c3ccc(N(CCC#N)CCC#N)cc3C)N=C2c2cc([N+](=O)[O-])ccc2Cl)cc1 | 2.31 µM (inactive) | 7.53 µM (inactive) | 17.1 µM (inactive) | > 100 µM (inactive) | 6.9 µM (inactive) | 3.3 µM (inactive) | 2.34 µM (inactive) | 3.32 µM (inactive) | –
Cc1c2ccncc2cc2c1sc1ccncc12 | 5.5 µM (inactive) | 6.68 µM (inactive) | 3.94 µM (inactive) | 7.71 µM (inactive) | 13 µM (inactive) | 2.09 µM (inactive) | 12.1 µM (inactive) | 6.21 µM (inactive) | 2.25 µM (inactive)
CCOC(=O)NNC(=O)NC12CC3CC(CC(C3)C1)C2 | > 100 µM (inactive) | > 100 µM (inactive) | > 100 µM (inactive) | > 100 µM (inactive) | > 100 µM (inactive) | > 100 µM (inactive) | > 100 µM (inactive) | > 100 µM (inactive) | –
CCOC(=O)C(C(=O)OCC)=c1sc(=C(C(=O)OCC)C(=O)OCC)s1 | > 100 µM (inactive) | > 100 µM (inactive) | > 100 µM (inactive) | – | > 100 µM (inactive) | > 100 µM (inactive) | – | – | –
Cc1[nH]c2c(C)cccc2c1C1Cc2ccccc2N1 (configuration not stated) | 17.1 µM (inactive) | 17.6 µM (inactive) | 21.7 µM (inactive) | 17.8 µM (inactive) | – | – | 21.1 µM (inactive) | 18.2 µM (inactive) | –
O=C(CSc1nnc(Cc2ccccc2)o1)Nc1ccc(Cl)cc1[N+](=O)[O-] | 22.5 µM (inactive) | 17.1 µM (inactive) | 17 µM (inactive) | 14.7 µM (inactive) | 20 µM (inactive) | 19.7 µM (inactive) | 17.5 µM (inactive) | – | –
CC(=O)OCc1c(O)nc2c(c1O)-c1ccccc1CC2 | 106 µM (inactive) | 60 µM (inactive) | 54.3 µM (inactive) | 129 µM (inactive) | – | 49.2 µM (inactive) | 56.5 µM (inactive) | 67.8 µM (inactive) | 69.5 µM (inactive)
COc1ccc(NC(=O)c2oc3cc(O)ccc3c(=O)c2C)c([N+](=O)[O-])c1 | > 100 µM (inactive) | > 100 µM (inactive) | > 100 µM (inactive) | > 100 µM (inactive) | > 100 µM (inactive) | > 100 µM (inactive) | > 100 µM (inactive) | > 100 µM (inactive) | –
CC(=O)Nc1ccc(C2[C@H]3C(=O)N(c4ccc(Cc5ccc(N6C(=O)[C@@H]7ON(c8ccccc8)C(c8ccc(NC(C)=O)cc8)[C@@H]7C6=O)cc5)cc4)C(=O)[C@H]3ON2c2ccccc2)cc1 (some centres not stated) | > 100 µM (inactive) | > 100 µM (inactive) | 44.2 µM (inactive) | > 100 µM (inactive) | > 100 µM (inactive) | > 100 µM (inactive) | – | > 100 µM (inactive) | –
COCC1N=C(c2cc(OC)c(OC)c(OC)c2-c2cc3c(cc2C2OCCCO2)OCO3)O[C@H]1c1ccccc1 (some centres not stated) | > 100 µM (inactive) | – | > 100 µM (inactive) | – | – | > 100 µM (inactive) | – | > 100 µM (inactive) | –
COc1cc(/C=C2\CCc3ccccc3C2=O)cc(OC)c1OC | 17.2 µM (inactive) | 15.2 µM (inactive) | 15.9 µM (inactive) | 13.6 µM (inactive) | 24 µM (inactive) | 11.9 µM (inactive) | 17.9 µM (inactive) | 12.5 µM (inactive) | 22.4 µM (inactive)
